# Assay results: patent US20240174684A1, “INHIBITORS OF cGAS ACTIVITY AS THERAPEUTIC AGENTS” (BELLBROOK LABS, LLC, priority 2021, published 2024)
# Read-outs that look alike come from different tables or passages of the source.
# Assays:
# [1] = system: MDCK cells expressing human MDR1 (P-glycoprotein); assay: MDCK-MDR1 permeability A→B; format: in vitro ADME, Canine
# How it was run: (§1)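 Permeability measured apical-to-basolateral in MDCK cells expressing human MDR1, reported as binned ranges in cm/s×10^−6. Metabolic stability determined as half-life in mouse and human hepatocytes, reported as binned ranges in minutes.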
# [2] = Metabolic stability in mouse hepatocytes; format: in vitro ADME; details: read-out: Mouse MS Stability t1/2
# Experimental: (§2) ADME studies: Compound A and the compounds of the disclosure were tested for aqueous solubility (KSOL), metabolic stability (human and mouse […]) and permeability (Caco-2 and/or MDR1-MDCK cells) to provide an initial indication of oral bioavailability.
# (§3) The favorable physicochemical properties are reflected in promising results in in vitro ADME tests. […] Metabolic stability, which was routinely measured with mouse and human hepatocytes, is outstanding, with t, greater than 2 hours for all of the compounds of the disclosure in which it has been measured. Cell permeability was measured using MDCK cells expressing human MDR1 (P-glycoprotein) to assess passive permeability as well as active transport out of the cell. […] Numerous compounds in Table 1 meet these permeability criteria, which is consistent with their design for TPSA <140 Å^2 and increased lipophilicity.
# (§4) The MDCK-MDR1 permeability A ->B is shown in Table 2 below, where A represents 5-10 cm/s×10^−6; B represents 1-5 cm/s×10^−6; and C represents <1 cm/ss×10^−6. The metabolic stability half time, in both mouse and human hepatocytes, is also shown in Table 2 below, where A′ represents 100-200 minutes; B′ represents 200-300 minutes; and C′ represents >300 minutes.
# [3] = Metabolic stability in human hepatocytes; format: in vitro ADME; details: read-out: Human MS Stability t1/2
# Experimental: as §2, §3, §4
# [4] = Kinetic aqueous solubility (KSOL) in PBS, pH 7.4; format: physicochemical; details: aqueous buffer, kinetic from dmso stock
# Experimental: as §2, §3
# cGAS = cGAS (Homo sapiens, UniProt Q8N884); assay: Transcreener cGAS enzymatic assay (FP); format: biochemical
# cGAS, sequence (Q8N884 whole entry): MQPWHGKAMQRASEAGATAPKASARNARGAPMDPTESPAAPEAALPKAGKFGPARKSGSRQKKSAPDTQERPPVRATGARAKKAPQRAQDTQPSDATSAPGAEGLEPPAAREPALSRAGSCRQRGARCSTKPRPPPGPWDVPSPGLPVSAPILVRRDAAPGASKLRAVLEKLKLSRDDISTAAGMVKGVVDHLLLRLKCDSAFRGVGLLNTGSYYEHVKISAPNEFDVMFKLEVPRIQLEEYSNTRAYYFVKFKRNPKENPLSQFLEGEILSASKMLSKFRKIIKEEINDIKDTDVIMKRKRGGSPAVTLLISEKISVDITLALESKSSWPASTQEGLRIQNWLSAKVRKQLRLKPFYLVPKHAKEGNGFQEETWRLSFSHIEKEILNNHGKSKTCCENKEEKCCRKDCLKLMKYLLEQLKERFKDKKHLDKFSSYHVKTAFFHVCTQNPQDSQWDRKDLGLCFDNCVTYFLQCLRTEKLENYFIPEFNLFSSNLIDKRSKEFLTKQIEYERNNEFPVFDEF
# How it was run: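 Human cGAS (30 nm) inhibition, 60 min reactions, FP read-out, standard conditions 100 μM ATP and GTP plus 62.5 nM bp ISD. Also run at 1 mM ATP and GTP (physiological), with 200 μM MnCl2, and with mouse cGAS under standard conditions; IC50 reported.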
# [5] = system: IFNβ production in THP-1 cells; assay: IFNβ ELISA in THP-1 cells; format: cell-based, human; details: for IC50: Homo sapiens, THP-1 cells
# How it was run: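 THP-1 cells stimulated with dsDNA or cGAMP (STING activation bypassing cGAS) in the presence of compound; IFNβ secreted into medium quantified by ELISA. IC50 values reported in potency bins.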
# [6] = system: IFN-β production in PBMCs; assay: IFNβ ELISA in human primary PBMCs; format: cell-based; details: PBMC
# Text: Cellular assays: The human monocyte cell line THP-1 and human primary PBMCs were used to evaluate the cellular activity of compounds with good biochemical potency. These cells produce a robust cGAS/STING-dependent type I IFN response when stimulated with dsDNA and other pathogen-associated molecular patterns, which was detected using a standard ELISA for IFNβ (R&D Systems). The TBK1 inhibitor, BX-795, which acts downstream of cGAS/STING, was used as a probe.
# The ICso values for IFNB ELISA stimulated with THP-1, PBMC, DNA, and cGAMP were determined for several exemplary compounds of the invention, and are provided in Table 3 where A represents <1 μM; B represents 1-2.5 μM; C represents 2.5-10 μM; D represents 10-20 μM; and E represents >20 μM.
# The reporter gene assays were used to assess off-target activity with IRF30Luc (RIG-1) or NFKB (TLR4); CellTiter Glo (ATP levels) and Presto Blue (reducing equivalents) were used to assess cytotoxicity; all assays were performed in dose response mode. […] The inventors recently began using human PBMCs to assess cellular potency in a more physiologically relevant context.
# MDR1 (P-glycoprotein) = assay: MDCK-MDR1 permeability A→B; format: in vitro ADME, Canine; details: dog; MDCK cells expressing human MDR1, A→B; read-out: MDCK-MDR Permeability A→B
# How it was run: as §1
# [7] = high ATP and GTP (1 mM) to mimic physiological conditions, read-out: IC50 FP Physiological
# [8] = standard conditions: 100 μM ATP and GTP, 62.5 nM bp ISD, 60 minute reactions, read-out: IC50 FP Standard
SMILES,MDCK-MDR Permeability A→B [1],half-life [2],half-life [3],solubility kinetic [4],IC50 (cGAS; [7]),IC50 (cGAS; [8]),IC50 [5],Papp A→B (MDR1 (P-glycoprotein)),half-life ([2]; given as number),Cellular IC50 relative to biochemical IC50 ([5]; cellular assays vs cGAS enzymatic assay at 1 mM ATP/GTP),IC50 [6]
"Cc1nc(N2C[C@@H](CC(=O)N(C)C3CCCC3)C[C@H]2C(=O)O)c2oc3ccccc3c2n1 [Compound 2, (2S,4R)-4-(2-(cyclopentyl(methyl)amino)-2-oxoethyl)-1-(2-methylbenzofuro[3,2-d]pyrimidin-4-yl)pyrrolidine-2-carboxylic acid]",C (C represents <1 cm/ss×10^−6),> 300 min,> 300 min,506 µM,500 to 1000 nM,50 to 100 nM,> 20000 nM,–,–,–,–
"Cc1nc(N2C[C@@H](CC(=O)Nc3ccc4[nH]ncc4c3)C[C@H]2C(=O)O)c2oc3ccccc3c2n1 [Compound 3, (2S,4R)-4-(2-((1H-indazol-5-yl)amino)-2-oxyethyl)-1-(2-methylbenzofuro[3,2-d]pyrimidin-4-yl)pyrrolidine-2-carboxylic acid]",C (C represents <1 cm/ss×10^−6),> 300 min,–,496 µM,> 5000 nM,1000 to 10000 nM,10000 to 20000 nM,–,–,–,–
"Cc1nc(N2C[C@@H](CC(=O)Nc3ccc4ncccc4c3)C[C@H]2C(=O)O)c2oc3ccccc3c2n1 [Compound 32, (2S,4R)-1-(2-methylbenzofuro[3,2-d]pyrimidin-4-yl)-4-(2-oxo-2-(quinolin-6-ylamino)ethyl)pyrrolidine-2-carboxylic acid]",C (C represents <1 cm/ss×10^−6),200 to 300 min,> 300 min,527 µM,1000 to 5000 nM,50 to 100 nM,2500 to 10000 nM,–,–,–,10000 to 20000 nM
"Cc1nc(N2C[C@@H](CC(=O)Nc3ccc4[nH]ccc4c3)C[C@H]2C(=O)O)c2oc3ccccc3c2n1 [Compound 1, (2S,4R)-4-(2-((1H-indol-5-yl)amino)-2-oxyethyl)-1-(2-methylbenzofuro[3,2-d]pyrimidin-4-yl)pyrrolidine-2-carboxylic acid]",–,100 to 200 min,> 300 min,487 µM,1000 to 5000 nM,50 to 100 nM,2500 to 10000 nM,1 to 5 ×10⁻⁶ cm/s,–,–,–
"COc1cc(NC(=O)C[C@H]2C[C@@H](C(=O)O)N(c3nc(C)nc4c3oc3ccccc34)C2)ccn1 [Compound 6, (2S,4R)-4-(2-((2-methoxypyridin-4-yl)amino)-2-oxoethyl)-1-(2-methylbenzofuro[3,2-d]pyrimidin-4-yl)pyrrolidine-2-carboxylic acid]",C (C represents <1 cm/ss×10^−6),> 300 min,> 300 min,496 µM,1000 to 5000 nM,50 to 100 nM,2500 to 10000 nM,–,–,–,–
"Cc1nc(N2C[C@@H](CC(=O)Nc3ccc(Cl)c(Cl)c3)C[C@H]2C(=O)O)c2oc3ccccc3c2n1 [Compound 26, (2S,4R)-4-(2-((3,4-dichlorophenyl)amino)-2-oxoethyl)-1-(2-methylbenzofuro[3,2-d]pyrimidin-4-yl)pyrrolidine-2-carboxylic acid]",–,> 300 min,> 300 min,80 µM,1000 to 5000 nM,200 to 1000 nM,2500 to 10000 nM,5 to 10 ×10⁻⁶ cm/s,–,–,2500 to 10000 nM
"C#Cc1ccc(NC(=O)C[C@H]2C[C@@H](C(=O)O)N(c3nc(C)nc4c3oc3ccccc34)C2)cc1 [Compound 27, (2S,4R)-4-(2-((4-ethynylphenyl)amino)-2-oxoethyl)-1-(2-methylbenzofuro[3,2-d]pyrimidin-4-yl)pyrrolidine-2-carboxylic acid]",–,> 300 min,100 to 200 min,548 µM,1000 to 5000 nM,100 to 200 nM,2500 to 10000 nM,1 to 5 ×10⁻⁶ cm/s,–,–,2500 to 10000 nM

# Now from value to compound, other results behind:
MDCK-MDR Permeability A→B [1],half-life [2],half-life [3],solubility kinetic [4],IC50 (cGAS; [7]),IC50 (cGAS; [8]),IC50 [5],Papp A→B (MDR1 (P-glycoprotein)),half-life ([2]; given as number),Cellular IC50 relative to biochemical IC50 ([5]; cellular assays vs cGAS enzymatic assay at 1 mM ATP/GTP),SMILES,IC50 [6]
C (C represents <1 cm/ss×10^−6),200 to 300 min,> 300 min,547 µM,< 200 nM,< 50 nM,1000 to 2500 nM,–,–,–,"Cc1nc(N2C[C@@H](CC(=O)Nc3ccc(-c4cccnc4)cc3)C[C@H]2C(=O)O)c2oc3ccccc3c2n1 [Compound 37, (2S,4R)-1-(2-methylbenzofuro[3,2-d]pyrimidin-4-yl)-4-(2-oxo-2-((4-(pyridin-3-yl)phenyl)amino)ethyl)pyrrolidine-2-carboxylic acid]",1000 to 2500 nM
C (C represents <1 cm/ss×10^−6),> 300 min,100 to 200 min,84 µM,200 to 500 nM,< 50 nM,1000 to 2500 nM,–,–,–,"Cc1nc(N2C[C@@H](CC(=O)Nc3ccc(-c4ccc5[nH]ncc5c4)cc3)C[C@H]2C(=O)O)c2oc3ccccc3c2n1 [Compound 38, (2S,4R)-4-(2-((4-(1H-indazol-5-yl)phenyl)amino)-2-oxoethyl)-1-(2-methylbenzofuro[3,2-d]pyrimidin-4-yl)pyrrolidine-2-carboxylic acid]",2500 to 10000 nM
–,–,100 to 200 min,570 µM,200 to 500 nM,100 to 200 nM,< 1000 nM,1 to 5 ×10⁻⁶ cm/s,> 360 min,essentially identical,"Cc1nc(N2C[C@@H](CC(=O)Nc3ccc(-c4ccccc4)c(C(F)(F)F)c3)C[C@H]2C(=O)O)c2oc3ccccc3c2n1 [Compound 63, (2S,4R)-1-(2-methylbenzofuro[3,2-d]pyrimidin-4-yl)-4-(2-oxo-2-((2-(trifluoromethyl)-[1,1′-biphenyl]-4-yl)amino)ethyl)pyrrolidine-2-carboxylic acid]",1000 to 2500 nM
–,> 300 min,> 300 min,155 µM,200 to 500 nM,50 to 100 nM,1000 to 2500 nM,1 to 5 ×10⁻⁶ cm/s,–,–,"Cc1nc(N2C[C@@H](CC(=O)Nc3cccc(-c4ccccc4)c3)C[C@H]2C(=O)O)c2oc3ccccc3c2n1 [Compound 36, (2S,4R)-4-(2-([1,1′-biphenyl]-3-ylamino)-2-oxoethyl)-1-(2-methylbenzofuro[3,2-d]pyrimidin-4-yl)pyrrolidine-2-carboxylic acid]",1000 to 2500 nM
–,100 to 200 min,100 to 200 min,285 µM,500 to 1000 nM,50 to 100 nM,1000 to 2500 nM,1 to 5 ×10⁻⁶ cm/s,–,–,"Cc1nc(N2C[C@@H](CC(=O)Nc3ccc(Cc4ccccc4)cc3)C[C@H]2C(=O)O)c2oc3ccccc3c2n1 [Compound 54, (28.4R)-4-(2-((4-benzylphenyl)amino)-2-oxoethyl)-1-(2-methylbenzofuro[3,2-d]pyrimidin-4-yl)pyrrolidine-2-carboxylic acid]",2500 to 10000 nM
C (C represents <1 cm/ss×10^−6),> 300 min,100 to 200 min,42 µM,< 200 nM,< 50 nM,< 1000 nM,–,–,–,"Cc1nc(N2C[C@@H](CC(=O)Nc3ccc(-c4cccc5[nH]ncc45)cc3)C[C@H]2C(=O)O)c2oc3ccccc3c2n1 [Compound 46, (2S,4R)-4-(2-((4-(1H-indazol-4-yl)phenyl)amino)-2-oxoethyl)-1-(2-methylbenzofuro[3,2-d]pyrimidin-4-yl)pyrrolidine-2-carboxylic acid]",1000 to 2500 nM
